Test results taken from patent US7462459B2, “LAT1 transporters expressed in blood brain barrier cells” (XenoPort, Inc., priority 2004, dated 2008).
Read-outs that look alike come from different tables or passages of the source.

Columns and labels:
LAT1 [1] = biological target: T1, LAT1 (Homo sapiens, UniProt Q01650); conditions: cited from earlier work
Target sequence in this assay (Q01650 whole entry, species assumed): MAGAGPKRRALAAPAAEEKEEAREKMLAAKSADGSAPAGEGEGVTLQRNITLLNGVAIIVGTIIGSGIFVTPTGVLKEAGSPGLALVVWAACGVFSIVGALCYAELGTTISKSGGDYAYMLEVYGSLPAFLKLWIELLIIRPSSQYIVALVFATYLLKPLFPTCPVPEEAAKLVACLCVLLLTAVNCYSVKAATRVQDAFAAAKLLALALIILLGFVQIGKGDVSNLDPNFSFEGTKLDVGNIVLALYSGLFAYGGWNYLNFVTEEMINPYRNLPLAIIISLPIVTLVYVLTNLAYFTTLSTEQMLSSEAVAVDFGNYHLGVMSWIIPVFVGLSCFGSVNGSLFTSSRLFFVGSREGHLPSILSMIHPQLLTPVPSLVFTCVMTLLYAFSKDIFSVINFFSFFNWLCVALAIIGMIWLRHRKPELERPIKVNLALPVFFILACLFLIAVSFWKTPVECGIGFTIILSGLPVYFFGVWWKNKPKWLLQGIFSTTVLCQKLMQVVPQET
Target sequence in this assay (P08195 102-630 partner, species assumed): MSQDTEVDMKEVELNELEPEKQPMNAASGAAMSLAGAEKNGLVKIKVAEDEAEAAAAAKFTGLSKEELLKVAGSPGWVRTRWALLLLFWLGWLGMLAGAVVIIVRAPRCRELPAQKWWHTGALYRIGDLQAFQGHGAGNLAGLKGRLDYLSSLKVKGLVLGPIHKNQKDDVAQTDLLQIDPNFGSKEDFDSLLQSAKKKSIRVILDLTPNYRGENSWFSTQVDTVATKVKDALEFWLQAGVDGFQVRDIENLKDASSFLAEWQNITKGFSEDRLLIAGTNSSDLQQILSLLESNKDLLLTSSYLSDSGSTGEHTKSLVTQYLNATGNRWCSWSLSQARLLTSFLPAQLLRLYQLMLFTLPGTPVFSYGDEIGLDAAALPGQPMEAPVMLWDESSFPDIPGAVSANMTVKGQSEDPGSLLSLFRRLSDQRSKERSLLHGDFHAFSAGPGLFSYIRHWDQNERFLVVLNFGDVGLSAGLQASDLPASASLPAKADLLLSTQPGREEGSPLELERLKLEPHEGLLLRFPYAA

LAT1 transporter = biological target: T2, LAT1 transporter (Homo sapiens, UniProt Q01650); experiment: KB cell competition assay with 14C-gabapentin; type: cell-based
T2 construct: KB cells endogenously expressing LAT1; endogenous in cells; host or cells: KB cells
Text: To increase the throughput of LAT1 compound screening, a mammalian cell assay was developed. Because LAT1 mRNA is expressed at detectable levels in many cancer cell lines, over 20 human cell lines were screened for LAT1 expression using quantitative PCR. Cell lines included A498, A549, ASPC, CALU, CAPAN, DLD, DU145, H69AR, HCT8, HEK, HELA, HEPG2, HL60, JAR, JUR, KB, LOVO, MCF7, PANC1, PC3, and SW48.
To determine whether a compound interacts with the LAT1 transporter, a competition-binding assay was developed. The assay measures how different concentrations of a test compound block the uptake of a radiolabeled substrates such as ^14C-L-dopa or ^14C-gabapentin. The half-maximal inhibitory concentration (IC50) for inhibition of transport of a substrate by a test compound is an indication of the affinity of the test compound for the LAT1 transporter. Competition binding studies were performed as follows. KB cells were plated in 96-well plates at 100,000 cells/well and incubated for 24 hours at 37° C. Radiolabeled ^14C-gabapentin (˜50,000 cpm/well) was added to each well in the presence and absence of various concentrations of test compound in duplicate or triplicate. Plates were incubated at room temperature for 20 min. Excess radiolabeled substrate was removed and cells were washed three times with a 96-well plate washer with cold assay buffer. Scintillation fluid was added to each well, the plates were sealed and counted in a 96-well plate-based scintillation counter. Data were graphed and analyzed using non-linear regression analysis with Prism Software (GraphPad, Inc., San Diego, Calif.).

hLAT1 [2] = biological target: T3, hLAT1 (Homo sapiens, UniProt P08195+Q01650); experiment: LAT1 competition uptake assay in HEK-TREx-LAT1-4F2hc cells with 3H-gabapentin; type: cell-based
T3 construct: expressed in transfected cells
Procedure: The plates were incubated at room temperature for 15 minutes.

hLAT1 [3] = biological target: T3, hLAT1; experiment: LAT1 direct uptake assay in HEK-TREx-LAT1-4F2hc cells (LC-MS-MS); type: cell-based; conditions: read-out: Km or IC50, Direct Uptake
Procedure: Four concentrations (bracketing the affinity as measured by competition assays) per compound were routinely tested.
Typically, four concentrations bracketing the IC50 were tested. The highest test concentration for each compound was made in an eppendorf tube and diluted into HBSS. The samples were robustly vortexed and centrifuged for 10 minutes at 13,200 rpm to spin down any precipitate. […] Three additional 2-fold dilutions were made in the subsequent rows (B-D or […]) in HBSS.
Alternatively, cells were washed manually with equivalent volumes using a multichannel pipettor.
The plate was incubated at room temperature for 10 minutes.
120 μl of the cell extract was removed from each well and transferred to a fresh 96-well v-bottom polypropylene plate. […] 10 μl of the 50 μM propranolol solution was added to each well of a fresh 96-well plate (a plate amenable for sampling in the LC-MS-MS).

LAT1 [4] = biological target: T1, LAT1; conditions: Literature; LAT1-expressing oocytes; cited from earlier work
Target sequence in this assay (Q01650 whole entry, species assumed): as the sequence (Q01650 whole entry, species assumed) above
Target sequence in this assay (P08195 102-630 partner, species assumed): as the sequence (P08195 102-630 partner, species assumed) above

LAT1 [5] = biological target: T1, LAT1; experiment: KB cell direct uptake assay (LC-MS-MS); conditions: read-out: Km or IC50, Direct Uptake; KB cells; 5 min
LAT1 [6] = biological target: T1, LAT1; experiment: Oocyte direct uptake assay (LC-MS-MS), oocytes expressing hLAT1 and 4F2hc; type: cell-based; set-up: expressed in transfected cells; host or cells: Xenopus oocytes injected with cRNA
Text: To assess transport function of a specific transporter protein, it can be desirable to clone the cDNA and express the protein in cells that have low endogenous transport activity. Human LAT1 was cloned by PCR, fully sequenced, and subcloned into plasmids that can be used for expression in mammalian cells or Xenopus oocytes. The co-subunit required for LAT1 function, 4F2HC (Genbank accession AB018010), was also cloned and sequenced. Unless otherwise noted, 4F2HC was also co-expressed in each heterologous system described in the example. […] For expression in Xenopus oocytes, in vitro LAT1 and 4F2HC cRNA was prepared and injected into defoliculated oocytes.
To measure directly the uptake of possible substrates, an oocyte uptake assay in which compounds are measured by mass spectroscopy was developed. To illustrate this approach, uptake assays of gabapentin and L-dopa were performed. Oocytes used in this experiment were injected with LAT1 cRNA and incubated at 16-18° C. until maximal transporter expression was reached. Oocytes from the same batch, which were not injected with cRNA, were used in the experiment to serve as a control. […] Following the incubation, the pools of oocytes were washed 4 times with 0.5% BSA ND96 buffer and separated into 2 oocyte subpools containing 4 oocytes each. Subpools were homogenized in 150 μl of ice cold 80% MeOH/H2O, and lysed manually with a P200 pipettor. Lysates were vortexed briefly before being spun in a 4° C. tabletop centrifuge at 13.2 krpm for 15 minutes. Approximately 110 μl of lysate was removed from the eppendorf tubes and placed in a 96-well plate. Lysates were analyzed for gabapentin and L-dopa by liquid chromatography-mass spectroscopy.
Samples were analyzed by LC-MS-MS as follows. […] Analyte fragmentation peaks were integrated using Analyst 1.2 quantitation software, and concentrations were calculated using a calibration curve of signals produced by known concentrations of the compound.
Target sequence in this assay (Q01650 whole entry): as the sequence (Q01650 whole entry, species assumed) above
Target sequence in this assay (as listed by the source partner): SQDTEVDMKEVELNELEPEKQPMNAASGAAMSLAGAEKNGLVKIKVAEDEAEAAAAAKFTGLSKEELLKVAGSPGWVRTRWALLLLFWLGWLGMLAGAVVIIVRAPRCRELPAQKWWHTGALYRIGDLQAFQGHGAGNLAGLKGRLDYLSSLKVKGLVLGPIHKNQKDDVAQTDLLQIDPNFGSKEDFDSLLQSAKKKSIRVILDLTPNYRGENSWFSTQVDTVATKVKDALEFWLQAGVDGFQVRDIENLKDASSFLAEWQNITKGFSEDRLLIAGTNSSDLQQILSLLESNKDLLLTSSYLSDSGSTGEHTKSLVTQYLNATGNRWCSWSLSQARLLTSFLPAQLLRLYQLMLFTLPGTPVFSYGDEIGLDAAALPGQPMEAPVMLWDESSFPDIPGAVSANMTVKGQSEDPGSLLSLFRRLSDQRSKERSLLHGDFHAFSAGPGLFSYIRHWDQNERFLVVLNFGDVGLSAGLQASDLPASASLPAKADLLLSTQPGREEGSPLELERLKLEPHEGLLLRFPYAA

PgP = PgP (Homo sapiens, UniProt P08183); experiment: Cellular transwell monolayer efflux assay, MDCK cells with TREx-PgP
LAT1 [7] = biological target: T1, LAT1; experiment: Radiolabel uptake into Xenopus oocytes expressing LAT1 and 4F2HC; type: cell-based; set-up: expressed in transfected cells; host or cells: Xenopus oocytes injected with cRNA; conditions: FIG. 2
[8] = KB cells, read-out: Km or IC50, Competition (14C-GP)
[9] = own data, read-out: Km or IC50, Direct Uptake
[10] = 2.5 nM 3H-vinblastine, 250 μM verapamil

Sequence of PgP (P08183 whole entry): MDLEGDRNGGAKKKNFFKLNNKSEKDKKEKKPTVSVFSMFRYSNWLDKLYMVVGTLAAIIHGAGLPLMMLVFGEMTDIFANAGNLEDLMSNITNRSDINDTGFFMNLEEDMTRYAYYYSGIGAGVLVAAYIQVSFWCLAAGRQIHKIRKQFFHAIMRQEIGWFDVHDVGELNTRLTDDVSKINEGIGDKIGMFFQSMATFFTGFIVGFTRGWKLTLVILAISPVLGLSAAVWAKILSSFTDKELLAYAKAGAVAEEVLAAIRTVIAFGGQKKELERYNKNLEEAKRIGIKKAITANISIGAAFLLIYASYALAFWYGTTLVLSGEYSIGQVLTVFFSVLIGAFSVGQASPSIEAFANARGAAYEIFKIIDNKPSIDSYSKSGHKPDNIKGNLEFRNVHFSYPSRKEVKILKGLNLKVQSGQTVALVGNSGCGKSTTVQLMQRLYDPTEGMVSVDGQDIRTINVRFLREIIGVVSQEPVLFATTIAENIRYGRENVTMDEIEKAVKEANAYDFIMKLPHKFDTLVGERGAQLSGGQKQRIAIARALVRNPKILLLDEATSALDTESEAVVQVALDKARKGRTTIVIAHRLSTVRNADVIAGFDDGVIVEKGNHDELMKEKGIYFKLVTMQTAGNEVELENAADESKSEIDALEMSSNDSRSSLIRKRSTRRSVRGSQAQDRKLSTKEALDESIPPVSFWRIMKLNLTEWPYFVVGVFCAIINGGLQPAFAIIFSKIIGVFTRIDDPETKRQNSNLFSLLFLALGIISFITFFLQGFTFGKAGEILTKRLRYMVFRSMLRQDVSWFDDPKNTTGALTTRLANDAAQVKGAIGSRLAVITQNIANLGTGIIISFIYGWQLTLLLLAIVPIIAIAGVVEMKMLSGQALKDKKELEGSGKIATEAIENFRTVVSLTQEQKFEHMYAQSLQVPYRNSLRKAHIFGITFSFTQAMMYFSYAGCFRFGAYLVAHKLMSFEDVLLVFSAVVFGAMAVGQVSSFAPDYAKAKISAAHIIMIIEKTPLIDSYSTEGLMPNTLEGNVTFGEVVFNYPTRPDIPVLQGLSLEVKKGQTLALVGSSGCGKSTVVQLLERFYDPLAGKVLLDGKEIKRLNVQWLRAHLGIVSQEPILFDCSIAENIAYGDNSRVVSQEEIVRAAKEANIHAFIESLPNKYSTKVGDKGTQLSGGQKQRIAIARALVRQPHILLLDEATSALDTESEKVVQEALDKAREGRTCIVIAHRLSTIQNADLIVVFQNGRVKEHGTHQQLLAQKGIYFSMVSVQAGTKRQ
T2 sequence (Q01650 whole entry): as the sequence (Q01650 whole entry, species assumed) above
T2 sequence (P08195 102-630 partner): as the sequence (P08195 102-630 partner, species assumed) above
T3 sequence (Q01650+P08195 fused): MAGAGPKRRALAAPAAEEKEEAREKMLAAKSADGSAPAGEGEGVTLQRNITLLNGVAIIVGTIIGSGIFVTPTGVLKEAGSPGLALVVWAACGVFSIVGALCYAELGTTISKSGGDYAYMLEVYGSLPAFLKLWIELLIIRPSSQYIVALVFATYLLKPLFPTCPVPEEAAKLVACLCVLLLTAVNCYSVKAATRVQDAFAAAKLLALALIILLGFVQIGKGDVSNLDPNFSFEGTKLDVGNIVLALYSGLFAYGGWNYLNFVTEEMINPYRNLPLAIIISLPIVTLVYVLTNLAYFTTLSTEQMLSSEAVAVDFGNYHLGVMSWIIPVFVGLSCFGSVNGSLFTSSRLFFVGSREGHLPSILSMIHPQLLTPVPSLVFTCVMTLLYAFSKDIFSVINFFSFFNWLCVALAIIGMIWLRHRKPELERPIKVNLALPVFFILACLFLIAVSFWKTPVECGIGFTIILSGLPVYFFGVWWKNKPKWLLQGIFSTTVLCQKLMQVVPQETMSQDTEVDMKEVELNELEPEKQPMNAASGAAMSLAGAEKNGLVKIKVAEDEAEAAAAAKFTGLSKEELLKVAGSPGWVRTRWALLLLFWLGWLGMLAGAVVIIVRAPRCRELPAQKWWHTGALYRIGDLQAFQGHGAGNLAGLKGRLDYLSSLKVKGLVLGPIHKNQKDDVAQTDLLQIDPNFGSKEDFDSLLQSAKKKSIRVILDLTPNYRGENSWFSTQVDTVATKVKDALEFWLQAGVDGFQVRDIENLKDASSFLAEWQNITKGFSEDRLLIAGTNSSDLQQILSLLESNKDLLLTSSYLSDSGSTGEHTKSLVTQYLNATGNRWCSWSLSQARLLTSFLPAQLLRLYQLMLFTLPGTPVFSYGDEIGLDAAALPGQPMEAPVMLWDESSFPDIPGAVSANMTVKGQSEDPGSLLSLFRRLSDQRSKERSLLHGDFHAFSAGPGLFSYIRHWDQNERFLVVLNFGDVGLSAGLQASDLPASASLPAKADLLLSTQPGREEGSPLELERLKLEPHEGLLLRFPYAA

SMILES: CSCC[C@H](N)C(=O)O [Methionine]
- Reported Affinity for LAT1 (LAT1 [1]): 0.25 mM

SMILES: N[C@@H](Cc1ccccc1)C(=O)O [Phenylalanine]
- IC50 (LAT1 transporter; [8]): 100 µM
- IC50 (hLAT1 [2]; HEK-LAT1 cells, read-out: Km or IC50, Competition (3H-GP)): 160 µM
- Km (hLAT1 [3]): 140 µM
- Reported Affinity for LAT1 (LAT1 [1]): 0.025 mM
- Km or IC50, Radiolabel Uptake or Competition (LAT1 [4]): 12.5 to 14.2 µM
- Km (LAT1 [5]): 14.5 µM
- Km (LAT1 [6]; [9]): 25 µM

SMILES: CC(C)C[C@H](N)C(=O)O [Leucine]
- Reported Affinity for LAT1 (LAT1 [1]): 0.22 mM

SMILES: CC[C@]1(O)C[C@@H]2CN(CCc3c([nH]c4ccccc34)[C@@](C(=O)OC)(c3cc4c(cc3OC)N(C)[C@H]3[C@@](O)(C(=O)OC)[C@H](OC(C)=O)[C@]5(CC)C=CCN6CC[C@]43[C@@H]65)C2)C1 [vinblastine]
- PgP substrate status (PgP): is a substrate of PgP
- Apical to basolateral transport in the presence of verapamil (PgP; [10]): strongly increased
- Basolateral to apical transport in the presence of verapamil (PgP; [10]): strongly decreased

SMILES: N[C@@H](Cc1ccc(O)c(O)c1)C(=O)O [L-dopa]
- IC50 (LAT1 transporter; [8]): 190 µM
- Km (LAT1 [6]; [9]): 66 µM
- 3H-L-dopa uptake into oocytes expressing LAT1 and 4F2HC versus noninjected controls (LAT1 [7]): higher levels

SMILES: NCC1(CC(=O)O)CCCCC1 [Gabapentin]
- IC50 (LAT1 transporter): 210 µM
- IC50 (hLAT1 [2]): 400 µM
- Km (hLAT1 [3]): 500 µM
- Reported Affinity for LAT1 (LAT1 [1]): 0.15 mM
- Km or IC50, Radiolabel Uptake or Competition (LAT1 [4]): 340 µM
- Km (LAT1 [5]): 160 µM
- Km (LAT1 [6]; read-out: Km or IC50, Direct Uptake, own data): 140 µM

SMILES: NC1(C(=O)O)CC2CCC1C2 (stereo not shown) [Bicyclohexane amino acid]
- Reported Affinity for LAT1 (LAT1 [1]): 0.18 mM

SMILES: NCC(CC(=O)O)c1ccc(Cl)cc1 (stereo not shown) [Baclofen]
- Reported Affinity for LAT1 (LAT1 [1]): 0.25 mM

SMILES: N[C@@H](Cc1c[nH]c2ccccc12)C(=O)O [Tryptophan]
- Reported Affinity for LAT1 (LAT1 [1]): 0.35 mM
